Measurements: the NIST ThermoML archive (doi:10.1021/je060150a)
± gives the expanded uncertainty stated by the source.

How the values were obtained:
[1] = xn = mol fraction of the nth substance listed; settings: 101 kPa, Liquid
[2] = Liquid; for mass density / viscosity: 101 kPa
[3] = refractive index (Na D-line) (dimensionless); settings: 101.33 kPa, Liquid, Standard Abbe refractometry

ClC(Cl)Cl [trichloromethane] + CCC(C)=O
[1]
Settings	mass density, 283.15 K [kg/m3]	mass density, 293.15 K [kg/m3]	mass density, 303.15 K [kg/m3]	mass density, 313.15 K [kg/m3]	viscosity, 283.15 K [mPa·s]	viscosity, 293.15 K [mPa·s]	viscosity, 303.15 K [mPa·s]	viscosity, 313.15 K [mPa·s]
x1 = 0.0906	872.7 ± 0.3	861.7 ± 0.3	850.7 ± 0.3	839.3 ± 0.3	0.528 ± 0.007	0.475 ± 0.007	0.419 ± 0.006	0.385 ± 0.006
x1 = 0.1806	930.4 ± 0.3	918.7 ± 0.3	907.1 ± 0.3	895.1 ± 0.3	0.588 ± 0.008	0.526 ± 0.007	0.468 ± 0.007	0.42 ± 0.006
x1 = 0.272	990.2 ± 0.3	977.9 ± 0.3	965.6 ± 0.3	952.9 ± 0.3	0.627 ± 0.008	0.556 ± 0.008	0.499 ± 0.007	0.451 ± 0.006
x1 = 0.3661	1053.3 ± 0.3	1040.2 ± 0.3	1027.2 ± 0.3	1013.7 ± 0.3	0.66 ± 0.009	0.594 ± 0.008	0.53 ± 0.007	0.477 ± 0.007
x1 = 0.4551	1113.9 ± 0.3	1100.2 ± 0.3	1086.4 ± 0.3	1072.3 ± 0.3	0.692 ± 0.009	0.62 ± 0.008	0.553 ± 0.008	0.498 ± 0.007
x1 = 0.549	1179.5 ± 0.3	1165 ± 0.3	1150.5 ± 0.3	1135.5 ± 0.3	0.711 ± 0.009	0.633 ± 0.008	0.565 ± 0.008	0.51 ± 0.007
x1 = 0.633	1238.9 ± 0.4	1223.7 ± 0.4	1208.5 ± 0.3	1192.7 ± 0.3	0.712 ± 0.009	0.636 ± 0.008	0.571 ± 0.008	0.515 ± 0.007
x1 = 0.7035	1289.3 ± 0.4	1273.6 ± 0.4	1257.7 ± 0.4	1241.3 ± 0.4	0.717 ± 0.009	0.631 ± 0.008	0.566 ± 0.008	0.513 ± 0.007
x1 = 0.7973	1357.5 ± 0.4	1340.7 ± 0.4	1323.9 ± 0.4	1306.6 ± 0.4	0.701 ± 0.009	0.63 ± 0.008	0.566 ± 0.008	0.51 ± 0.007
x1 = 0.9068	1437.7 ± 0.5	1419.8 ± 0.5	1401.8 ± 0.5	1383.4 ± 0.4	0.674 ± 0.009	0.61 ± 0.008	0.546 ± 0.007	0.491 ± 0.007
x1 = 1	1507.3 ± 0.5	1488.4 ± 0.5	1469.4 ± 0.5	1450 ± 0.5	0.629 ± 0.008	0.573 ± 0.008	0.516 ± 0.007	0.468 ± 0.007

ClC(Cl)Cl [trichloromethane]
Settings	mass density, [2] [kg/m3]	refractive index, [3]	vapor or sublimation pressure, [2] [kPa]	viscosity, [2] [mPa·s]
283.15 K	1507.3 ± 0.5	1.45189 ± 0.00072	–	0.629 ± 0.008
293.15 K	1488.4 ± 0.5	1.44589 ± 0.00072	–	0.573 ± 0.008
303.15 K	1469.4 ± 0.5	1.43987 ± 0.00072	32.19 ± 0.65	0.516 ± 0.007
313.15 K	1450 ± 0.5	1.43386 ± 0.00072	–	0.468 ± 0.007

CCC(C)=O [butanone]
Settings	mass density, [2] [kg/m3]	refractive index, [3]	vapor or sublimation pressure, [2] [kPa]	viscosity, [2] [mPa·s]
283.15 K	815.9 ± 0.3	1.384 ± 0.00065	–	0.472 ± 0.007
293.15 K	805.5 ± 0.3	1.37888 ± 0.00065	–	0.423 ± 0.006
303.15 K	795.1 ± 0.3	1.37383 ± 0.00065	15.74 ± 0.4	0.382 ± 0.006
313.15 K	784.3 ± 0.3	1.36856 ± 0.00066	–	0.347 ± 0.005

CCC(C)=O [butanone] + ClC(Cl)Cl
[1], x2 = 0
Settings	mass density [kg/m3]	viscosity [mPa·s]
283.15 K	815.9 ± 0.3	0.472 ± 0.007
293.15 K	805.5 ± 0.3	0.423 ± 0.006
303.15 K	795.1 ± 0.3	0.382 ± 0.006
313.15 K	784.3 ± 0.3	0.347 ± 0.005
